Laboratory results from patent publication US4272437A, “Antibacterial agents, and 4-thio azetidinone intermediates” (priority 1979, dated 1981).
Values after ≈ are worked out from the molar mass of the structure shown. Where two headings read alike, the source gives them in different places.

Key:
[1] = test system: Ent. cloacae A-9659; test: MIC, tube dilution, Enterobacter cloacae A9659; format: cell-based; settings: overnight 37° C.; for MIC: Enterobacter cloacae, A9659, Enterobacter cloacae A9659, read-out: Minimum Inhibitory Concentration (M.I.C.)
Text: (§1) Representative compounds of the present invention were subjected to in vitro antibiotic screening against a variety of microorganisms.

[2] = test system: Staph. aureus (Pen-Res) A-9606; test: MIC, tube dilution, Staphylococcus aureus A9606 (Pen-Res); format: cell-based; settings: Staphylococcus aureus, Staph. aureus A9606 (Pen-Res); overnight 37° C.; read-out: Minimum Inhibitory Concentration (M.I.C.)
Text: as §1

[3] = test system: Ent. cloacae A-9656; test: MIC, tube dilution, Enterobacter cloacae A9656; format: cell-based; settings: Enterobacter cloacae, A9656, Enterobacter cloacae A9656; overnight 37° C.; read-out: Minimum Inhibitory Concentration (M.I.C.)
Text: as §1

[4] = test system: Proteus vulgaris A21559; test: MIC, tube dilution, Proteus vulgaris A21559; format: cell-based; settings: Proteus vulgaris, A21559, Proteus vulgaris A21559; overnight 37° C.; read-out: Minimum Inhibitory Concentration (M.I.C.)
Text: as §1

[5] = test system: Klebsiella species A20468; test: MIC, tube dilution, Klebsiella species A20468; format: cell-based; settings: Klebsiella species (K. pneumoniae) A20468; overnight 37° C.; read-out: Minimum Inhibitory Concentration (M.I.C.)
Text: as §1

[6] = test system: Pr. morganii A-15153; test: MIC, tube dilution, Proteus morganii A15153; format: cell-based; settings: Morganella morganii, A15153, Proteus morganii A15153; overnight 37° C.; read-out: Minimum Inhibitory Concentration (M.I.C.)
Text: as §1

[7] = Mouse blood levels after intramuscular administration; format: in vivo; settings: average of 6 mice, read-out: Mouse blood level
Method: Mouse blood levels after intramuscular administration of representative compounds of the present invention were determined and are reported in the table below.

[8] = test system: Ser. marcescens A-20019; test: MIC, tube dilution, Serratia marcescens A20019; format: cell-based; settings: Serratia marcescens, A20019, Serratia marcescens A20019; overnight 37° C.; read-out: Minimum Inhibitory Concentration (M.I.C.)
Text: as §1

[9] = test system: Proteus rettgeri A21203; test: MIC, tube dilution, Proteus rettgeri A21203; format: cell-based; settings: Providencia rettgeri, A21203, Proteus rettgeri A21203; overnight 37° C.; read-out: Minimum Inhibitory Concentration (M.I.C.)
Text: as §1

[10] = test system: Pr. mirabilis A-9900; test: MIC, tube dilution, Proteus mirabilis A9900; format: cell-based; settings: Proteus mirabilis, A9900, Proteus mirabilis A9900; overnight 37° C.; read-out: Minimum Inhibitory Concentration (M.I.C.)
Text: as §1

[11] = test system: E. coli A-20341-1; test: MIC, tube dilution, Escherichia coli A20341-1; format: cell-based; settings: Escherichia coli, A203411, E. coli A20341-1; overnight 37° C.; read-out: Minimum Inhibitory Concentration (M.I.C.)
Text: as §1

[12] = test system: K. pneumoniae A-15130; test: MIC, tube dilution, Klebsiella pneumoniae A15130; format: cell-based; settings: Klebsiella pneumoniae, A15130, K. pneumoniae A15130; overnight 37° C.; read-out: Minimum Inhibitory Concentration (M.I.C.)
Text: as §1

[13] = test system: Staph. aureus A-9537; test: MIC, tube dilution, Staphylococcus aureus A9537; format: cell-based; settings: Staphylococcus aureus, A9537, Staph. aureus A9537; overnight 37° C., Nutrient Broth; read-out: Minimum Inhibitory Concentration (M.I.C.)
Text: as §1

[14] = test system: Str. faecalis A-20688; test: MIC, tube dilution, Streptococcus faecalis A20688; format: cell-based; settings: Enterococcus faecalis, A20688, Str. faecalis A20688; overnight 37° C.; read-out: Minimum Inhibitory Concentration (M.I.C.)
Text: as §1

[15] = test system: Staph. aureus A-9537 and 50% serum; test: MIC, tube dilution, Staph. aureus A9537 + 50% serum; format: cell-based, Staphylococcus aureus; settings: Staphylococcus aureus, overnight 37° C., read-out: Minimum Inhibitory Concentration (M.I.C.)
Text: as §1

[16] = test system: Str. pyogenes A-9604; test: MIC, tube dilution, Streptococcus pyogenes A9604; format: cell-based; settings: Streptococcus pyogenes, A9604, Str. pyogenes A9604; overnight 37° C., Nutrient Broth; read-out: Minimum Inhibitory Concentration (M.I.C.)
Text: as §1

[17] = test system: Ps. aeruginosa A-9843A; test: MIC, tube dilution, Pseudomonas aeruginosa A9843A; format: cell-based; settings: Pseudomonas aeruginosa, A9843A, read-out: Minimum Inhibitory Concentration (M.I.C.), Pseudomonas aeruginosa A9843A; overnight 37° C.
Text: as §1

[18] = test system: Ps. aeruginosa A-21213; test: MIC, tube dilution, Pseudomonas aeruginosa A21213; format: cell-based; settings: overnight 37° C.; for MIC: read-out: Minimum Inhibitory Concentration (M.I.C.)
Text: as §1

[19] = test system: S. aureus A9537; test: In vivo protection of mice, lethal infection with S. aureus A9537; settings: Staphylococcus aureus, A9537, im, IM, 2 treatments, read-out: PD50
Method: Representative compounds of the present invention were also tested in vivo in mice and their PD50 (dose of compound in mg/kg required to protect 50% of the treated mice against an otherwise lethal infection of a micro-organism) values determined with respect to the test organisms shown below.

[20] = test system: E. coli A-15119; test: MIC, tube dilution, Escherichia coli A15119; format: cell-based; settings: Escherichia coli, A15119, E. coli A15119; overnight 37° C.; read-out: Minimum Inhibitory Concentration (M.I.C.)
Text: as §1

[21] = test system: Str. pneumoniae A-9585; test: MIC, tube dilution, Streptococcus pneumoniae A9585; format: cell-based; settings: Streptococcus pneumoniae, A9585, Str. pneumoniae A9585; overnight 37° C., Nutrient Broth; read-out: Minimum Inhibitory Concentration (M.I.C.)
Text: as §1

[22] = test system: Staph. aureus (Meth-Res) A-15097; test: MIC, tube dilution, Staphylococcus aureus A15097 (Meth-Res); format: cell-based; settings: Staphylococcus aureus, Staph. aureus A15097 (Meth-Res); overnight 37° C.; read-out: Minimum Inhibitory Concentration (M.I.C.)
Text: as §1

[23] = Pseudomonas aeruginosa, A21213, Pseudomonas aeruginosa A21213

SMILES | MIC [1] | MIC [2] | MIC [3] | MIC [4] | MIC [5] | MIC [6] | MIC [8] | MIC [9] | MIC [10] | MIC [11] | MIC [12] | MIC [13] | MIC [14] | MIC [15] | MIC [16] | MIC [17] | MIC [18, 23] | MIC [20] | MIC [21] | MIC [22] | further results
C[C@@H](O)[C@H]1C(=O)N2C(C(=O)O)=C([C@H]3C[C@H](N)C3)S[C@H]12 (relative stereo) [Example 65, (1"R,5R,6S and 1'S,5S,6R)-2-(trans-3'-Amino-1'-cyclobutyl)-6-(1"-hydroxy-1"-ethyl)penem-3-carboxylic Acid (isomer B)] | 4 µg/mL (≈ 14.1 µM) | 0.06 µg/mL (≈ 0.211 µM) | 0.5 µg/mL (≈ 1.76 µM) | < 0.25 µg/mL | 0.5 µg/mL (≈ 1.76 µM) | 1 µg/mL (≈ 3.52 µM) | 0.5 µg/mL (≈ 1.76 µM) | < 0.25 µg/mL | < 0.25 µg/mL | < 0.25 µg/mL | < 0.25 µg/mL | 0.008 µg/mL (≈ 0.0281 µM) | 0.5 µg/mL (≈ 1.76 µM) | 0.06 µg/mL | 0.004 µg/mL (≈ 0.0141 µM) | 16 µg/mL (≈ 56.3 µM) | 125 µg/mL (≈ 440 µM) | 0.13 µg/mL (≈ 0.457 µM) | 0.004 µg/mL (≈ 0.0141 µM) |  | Minimum Inhibitory Concentration (M.I.C.) ([1]; Enterobacter cloacae A9659): 2 µg/mL; concentration at 10 min ([7]; 10 minutes after IM 40 mg/kg): 44700 ng/mL; concentration at 20 min ([7]; 20 minutes after IM 40 mg/kg): 34400 ng/mL; concentration at 0.5 h ([7]; 30 minutes after IM 40 mg/kg): 23700 ng/mL; concentration at 0.75 h ([7]; 45 minutes after IM 40 mg/kg): 17600 ng/mL; concentration at 1 h ([7]; 60 minutes after IM 40 mg/kg): 9800 ng/mL; concentration at 1.5 h ([7]; 90 minutes after IM 40 mg/kg): 3600 ng/mL; concentration at 2 h ([7]; 120 minutes after IM 40 mg/kg): 1000 ng/mL; Minimum Inhibitory Concentration (M.I.C.) ([18]; Pseudomonas aeruginosa A21213): 63 µg/mL; ED50 ([19]; 7.8 × 10^5 organisms): 0.12 mg/kg
CC(N)CCC1=C(C(=O)O)N2C(=O)C[C@H]2S1 (some centres unmarked) [Example 80, 2-(3'-Aminobutyl)-penem-3-carboxylic Acid] | 16 µg/mL (≈ 66 µM) | 0.5 µg/mL (≈ 2.06 µM) | 8 µg/mL (≈ 33 µM) | 8 µg/mL (≈ 33 µM) | > 63 µg/mL | 16 µg/mL (≈ 66 µM) | 8 µg/mL (≈ 33 µM) | 8 µg/mL (≈ 33 µM) | 4 µg/mL (≈ 16.5 µM) | 8 µg/mL (≈ 33 µM) | 8 µg/mL (≈ 33 µM) | 0.06 µg/mL (≈ 0.248 µM) | 16 µg/mL (≈ 66 µM) | 0.25 µg/mL | 0.06 µg/mL (≈ 0.248 µM) | 63 µg/mL (≈ 260 µM) | > 63 µg/mL | 4 µg/mL (≈ 16.5 µM) | 0.03 µg/mL (≈ 0.124 µM) | > 63 µg/mL | ED50 ([19]; 8 × 10^5 organisms): 0.6 mg/kg
CCCC(N)C1=C(C(=O)O)N2C(=O)CC2S1 [Example 82, (1'R,5R and 1'S,5S) and (1'R,5S and 1'S,5R) 2-(1'-Aminobutyl)-penem-3-carboxylic Acid] | 63 µg/mL (≈ 260 µM) | 16 µg/mL (≈ 66 µM) | 32 µg/mL (≈ 132 µM) | 8 µg/mL (≈ 33 µM) | > 125 µg/mL | 16 µg/mL (≈ 66 µM) | 16 µg/mL (≈ 66 µM) | 8 µg/mL (≈ 33 µM) | 4 µg/mL (≈ 16.5 µM) | 32 µg/mL (≈ 132 µM) | 32 µg/mL (≈ 132 µM) | 0.25 µg/mL (≈ 1.03 µM) | 63 µg/mL (≈ 260 µM) | 4 µg/mL | 0.016 µg/mL (≈ 0.066 µM) | > 125 µg/mL |  | 8 µg/mL (≈ 33 µM) | 0.016 µg/mL (≈ 0.066 µM) | 4 µg/mL (≈ 16.5 µM) | MIC ([18]; Pseudomonas aeruginosa A21213): > 125 µg/mL; ED50 ([19]; 1 × 10^6 organisms): 1.25 mg/kg
